From patent US6670363B1, “Azole compounds as therapeutic agents for fungal infections” (Ranbaxy Laboratories Limited, priority 2000, dated 2003)
Values after ≈ are worked out from the molar mass of the structure shown.

How the values were obtained:
Type in all cases: cell-based
Histoplasma capsulatum = tested on: Histoplasma capsulatum
A. fumigatus s 1008 = assay: In vitro MIC, NCCLS M38P broth method (RPMI 1640/MOPS pH7), Aspergillus fumigatus; details: A. fumigatus strain 1008
Cryptococcus neoformans = assay: In vitro MIC, NCCLS M27A, Cryptococcus neoformans; parameters: MIC, C. neoformans I: unit not given beside the values; MIC, C. neoformans M 106: unit not given here; details: for MIC, C. neoformans I: C. neoformans strain I; for MIC, C. neoformans M 106: C. neoformans strain M 106
Candida = assay: In vitro MIC, NCCLS M27A, Candida species; parameters: MIC, Candida albicans 1.549 / MIC, Candida albicans Y-01-19 / MIC, C. krusei 766-1 / MIC, C. krusei Q. C / MIC, Candida tropicalis ATCC / MIC, C. glabrata 90030: unit not given beside the values; MIC, Candida albicans A 26 / MIC, C. parapsilosis Q. C.: unit not given here; details: for MIC, C. glabrata 90030: C. glabrata strain 90030; for MIC, C. krusei 766-1: C. krusei strain 766-1; for MIC, C. krusei Q. C: C. krusei strain Q. C; for MIC, C. parapsilosis Q. C.: C. parapsilosis strain Q. C.; for MIC, Candida albicans 1.549: Candida albicans strain 1.549; for MIC, Candida albicans A 26: Candida albicans strain A 26; for MIC, Candida albicans Y-01-19: Candida albicans strain Y-01-19

Row | Compound | MIC, H. capsulatum (Histoplasma capsulatum) | MIC, A. fumigatus 1008 (A. fumigatus s 1008) | MIC, C. neoformans I (Cryptococcus neoformans) | MIC, C. neoformans M 106 (Cryptococcus neoformans) | MIC, C. glabrata 90030 (Candida) | MIC, C. krusei 766-1 (Candida) | MIC, C. krusei Q. C (Candida) | MIC, C. parapsilosis Q. C. (Candida) | MIC, Candida albicans 1.549 (Candida) | MIC, Candida albicans A 26 (Candida) | MIC, Candida albicans Y-01-19 (Candida) | MIC, Candida tropicalis ATCC (Candida)
1 | Cc1nn([C@H](C)[C@@](O)(Cn2cncn2)c2ccc(F)cc2F)c(=O)n1-c1ccc(N2CCN(c3ccccc3F)CC2)cc1 [Compound 26, 2-{[1R2S/1S2R]-2-(2,4-Difluorophenyl)-2-hydroxy-1-methyl-3-(1H-1,2,4-triazol-1-yl)propyl}-4-{4-[4-(2-fluorophenyl)-1-piperazinyl]phenyl}-3-(2H,4H)-5-methyl-1,2,4-triazolone] | 0.12 µg/mL (≈ 0.198 µM) | 8.00 | <0.03 | <0.03 | 1.00 | 2.00 | 0.50 | <0.03 | 0.25 | <0.03 | 1.00 | <0.03
2 | C[C@@H](n1ncn(-c2ccc(N3CCN(c4ccc(Cl)cc4)CC3)cc2)c1=O)[C@@](O)(Cn1cncn1)c1ccc(F)cc1F [Compound 2, 2-{[1R2S/1S2R]-2-(2,4-Difluorophenyl)-2-hydroxy-1-methyl-3-(1H-1,2,4-triazol-1-yl)propyl}-4-{4-[4-(4-chlorophenyl)-1-piperazinyl]phenyl}-3-(2H,4H)-1,2,4-triazolone] | < 0.03 µg/mL | >16 | <0.03 | <0.03 | 0.50 | 2.00 | 1.00 | <0.03 | 1.00 | <0.03 | 0.25 | <0.03
3 | C[C@@H](n1ncn(-c2ccc(N3CCN(c4ccc(Cl)c(Cl)c4)CC3)cc2)c1=O)[C@](O)(Cn1cncn1)c1ccc(F)cc1F [Compound 7, 2-{[1R2R/1S2S]-2-(2,4-Difluorophenyl)-2-hydroxy-1-methyl-3-(1H-1,2,4-triazol-1-yl)propyl}-4-{4-[4-(3,4-dichlorophenyl)-1-piperzinyl]phenyl}-3-(2H,4H)-1,2,4-triazolone] | 0.12 µg/mL (≈ 0.187 µM) | 0.25 | <0.03 | <0.03 | 0.12 | 0.25 | 0.12 | <0.03 | 0.25 | <0.03 | 0.12 | <0.03
4 | C[C@@H](n1ncn(-c2ccc(N3CCN(c4ccc(Cl)cc4)CC3)cc2)c1=O)[C@](O)(Cn1cncn1)c1ccc(F)cc1F [Compound 1, 2-{[1R2R/1S2S]-2-(2,4-Difluorophenyl)-2-hydroxy-1-methyl-3-(1H-1,2,4-triazol-1-yl)propyl}-4-{4-[4-(4-chlorophenyl)-1-piperazinyl]phenyl}-3-(2H,4H)-1,2,4-triazolone] | 0.06 µg/mL (≈ 0.0988 µM) | 0.12 | <0.03 | <0.03 | 0.25 | 0.25 | 0.12 | <0.03 | 0.12 | <0.03 | 0.12 | <0.03
5 | Cc1nn(CC(O)(Cn2cncn2)c2ccc(F)cc2F)c(=O)n1-c1ccc(N2CCN(c3ccc(Cl)cc3)CC2)cc1 (stereo not drawn) [Compound 46, 2-[2-(2,4-Difluorophenyl)-2-hydroxy-3-(1H-1,2,4-triazol-1-yl)propyl]-4-{4-[4-(4-chlorophenyl)-1-piperazinyl]phenyl}-3-(2H,4H)-5-methyl-1,2,4-triazolone] | 0.1 µg/mL (≈ 0.165 µM) | >12.5 | 0.05 | 0.40 | 6.25 | 3.12 | 0.80 | <0.02 | 0.40 | <0.02 | 0.40 | 0.05
6 | C[C@@H](n1ncn(-c2ccc(N3CCN(c4ccc(F)cc4)CC3)cc2)c1=O)[C@@](O)(Cn1cncn1)c1ccc(F)cc1F [Compound 12, 2-{[1R2S/1S2R]-2-(2,4-Difluorophenyl)-2-hydroxy-1-methyl-3-(1H-1,2,4-triazol-1-yl)propyl}-4-{4-[4-(4-fluorophenyl)-1-piperazinyl]phenyl}-3-(2H,4H)-1,2,4-triazolone] | < 0.03 µg/mL | >16 | 0.12 | 0.25 | 4.00 | >16 | 8.00 | 0.06 | 4.00 | <0.03 | 8.00 | <0.03
7 | Cc1nn([C@H](C)[C@](O)(Cn2cncn2)c2ccc(F)cc2F)c(=O)n1-c1ccc(N2CCN(c3ccc(Cl)cc3Cl)CC2)cc1 [Compound 33, 2-{[1R2R/1S2S]-2-(2,4-Difluorophenyl)-2-hydroxy-1-methyl-3-(1H-1,2,4-triazol-1-yl)propyl}-4-{4-[4-(2,4-dichlorophenyl)-1-piperazinyl]phenyl}-3-(2H,4H)-5-methyl-1,2,4-triazolone] | 0.12 µg/mL (≈ 0.183 µM) | 0.50 | <0.03 | <0.03 | 0.25 | 0.25 | 0.06 | <0.03 | 0.13 | <0.03 | 0.13 | <0.03
8 | C[C@@H](n1ncn(-c2ccc(N3CCN(c4ccc(F)cc4)CC3)cc2)c1=O)[C@](O)(Cn1cncn1)c1ccc(F)cc1F [Compound 11, 2-{[1R2R/1S2S]-2-(2,4-Difluorophenyl)-2-hydroxy-1-methyl-3-(1H-1,2,4-triazol-1-yl)propyl}-4-{4-[4-(4-fluorophenyl)-1-piperazinyl]phenyl}-3-(2H,4H)-1,2,4-triazolone] | < 0.03 µg/mL | 0.25 | <0.03 | <0.03 | 0.25 | 0.25 | 0.12 | <0.03 | 0.06 | <0.03 | 0.12 | <0.03
9 | C[C@@H](n1ncn(-c2ccc(N3CCN(c4ccccc4)CC3)cc2)c1=O)[C@](O)(Cn1cncn1)c1ccc(F)cc1F [Compound 5] | < 0.03 µg/mL | 0.50 | <0.03 | <0.03 | 1.00 | 0.50 | 0.12 | <0.03 | 2.00 | <0.03 | 0.12 | <0.03
10 | C[C@@H](n1ncn(-c2ccc(N3CCN(c4cccc(C(F)(F)F)c4)CC3)cc2)c1=O)[C@](O)(Cn1cncn1)c1ccc(F)cc1F [Compound 9, 2-{[1R2R/1S2S]-2-(2,4-Difluorophenyl)-2-hydroxy-1-methyl-3-(1H-1,2,4-triazol-1-yl)propyl}-4-{4-[4-(3-trifluoromethylphenyl)-1-piperazinyl]phenyl}-3-(2H,4H)-1,2,4-triazolone] | 0.06 µg/mL (≈ 0.0937 µM) | 0.50 | <0.03 | <0.03 | 0.25 | 0.50 | 0.12 | <0.03 | 0.25 | <0.03 | 0.25 | <0.03
11 | Cc1nn([C@H](C)[C@](O)(Cn2cncn2)c2ccc(F)cc2F)c(=O)n1-c1ccc(N2CCN(c3cc(Cl)cc(Cl)c3)CC2)cc1 [Compound 29, 2-{[1R2R/1S2S]-2-(2,4-Difluorophenyl)-2-hydroxy-1-methyl-3-(1H-1,2,4-triazol-1-yl)propyl}-4-{4-[4-(3,5-dichlorophenyl)-1-piperazinyl]phenyl}-3-(2H,4H)-5-methyl-1,2,4-triazolone] | 0.25 µg/mL (≈ 0.381 µM) | 0.50 | <0.03 | <0.03 | 0.50 | 0.50 | 0.25 | <0.03 | 0.25 | <0.03 | 0.25 | <0.03
